Assay results: patent US11896586B2, “Apixaban formulations” (Bristol-Myers Squibb Company, priority 2018, dated 2024)

Test: Dissolution of apixaban in SLD coating solvent, monitored in situ by UV probe
Assay type: physicochemical
Experimental: Three aliquots of ethanol were dispensed. Apixaban was added to the first portion (1464 g) with stirring. This suspension was then added to a 20 L mixing vessel. To ensure complete API transfer, the remaining aliquots of ethanol (two aliquots of approximately 2600 g each) were used to rinse the suspension container surfaces and were subsequently added to the 20 L mixing vessel in step-wise fashion. The apixaban/ethanol solution was stirred using an overhead mixer at approximately 500 rpm for 50 minutes. Dissolution of apixaban in ethanol was monitored in-situ using a UV probe (absorbance range 278-282 nm, 2 mm tip opening, measure rate 1 s^−1).

Time to full dissolution of apixaban (ethanol, measured at 0.15 mgA/mL, UV 278-282 nm): less than 10 minutes
Time to full dissolution of apixaban (ethanol/water/HPMC solution, apparent concentration 0.21 mgA/g, UV 280 nm): less than 10 minutes
Compound: COc1ccc(-n2nc(C(N)=O)c3c2C(=O)N(c2ccc(N4CCCCC4=O)cc2)CC3)cc1 [apixaban, 1-(4-methoxyphenyl)-7-oxo-6-[4-(2-oxo-1-piperidinyl)phenyl]-4,5,6,7-tetrahydro-1H-pyrazolo[3,4-c]pyridine-3-carboxamide]
